Experimental data from patent US11766437B2, “Combination therapies for inhibition of TTK protein kinase” (UNIVERSITY HEALTH NETWORK, priority 2018, dated 2023).

Experiments:
[1] = system: CT26 mouse colon carcinoma; assay: Treatment of established subcutaneous CT26 tumors in BALB/cJ mice (syngeneic CT26 mouse colon carcinoma model); assay type: in vivo; details: CFI-402257 6 mg/kg PO QD 21 days, anti-PD-1 antibody 150 μg IP Days 0, 3, 6, 10
Experimental: (§1) BALB/cJ mice were inoculated subcutaneously with 1×10^6 CT26 cells. The mice were then randomized. Animal weights were monitored daily, and tumor volume was measured three times per week.
[…] was defined as 100×[1−TVf, treated−TVi, treated)/(TVf, control−TVi, control)], where TVf is the average tumor volume at the end of study and TVi is the average tumor volume at the end initiation of treatment. In cases in which tumor regression occurred, percentage of tumor regression was defined as 100×[1−(TVf, treated/TVi, treated)]. At the completion of each study, the mice were killed by an anesthetic overdose, and tumor tissue was removed for further analysis.
Treatments were initiated when tumor volumes reached an average size of ˜60 mm^3. To treat an established tumor, the animals were first assigned into groups, i.e., the control group receiving rat IgG2a […], the group receiving the compound CFI-402257 monotherapy, the group receiving the rat IgG2a anti-PD-1 antibody monotherapy and the group receiving the combination therapy. The compound CFI-402257 and the vehicle [10% (v/v) NMP/40% (v/v) PEG-300/50% (v/v) water for the hydrochloride form; or 80-90% (v/v) PEG-300 or PEG-400 20-10% (v/v) water for the bisphosphate hemihydrate form] were administered by oral gavage (PO), at 6 mg/kg daily (QD) for 21 days. […]

[2] = Animal body weight monitoring / tolerability in CT26 tumor-bearing BALB/cJ mice; assay type: in vivo, mouse
Experimental: as §1
Treatments were initiated when tumor volumes reached an average size of ˜60 mm^3. To treat an established tumor, the animals were first assigned into groups, i.e., the control group receiving rat IgG2a […], the group receiving the compound CFI-402257 monotherapy, the group receiving the rat IgG2a anti-PD-1 antibody monotherapy and the group receiving the combination therapy. The compound CFI-402257 and the vehicle [10% (v/v) NMP/40% (v/v) PEG-300/50% (v/v) water for the hydrochloride form; or 80-90% (v/v) PEG-300 or PEG-400 20-10% (v/v) water for the bisphosphate hemihydrate form] were administered by oral gavage (PO), at 6 mg/kg daily (QD) for 21 days. The anti-PD-1 antibody or the isotype control were administered by intraperitoneal (IP) injection. 150 μg anti-PD-1 antibody was administered in four doses, i.e., on Days 0, 3, 6 and 10. These treatment studies were carried out in duplicates.

## Cc1cc(-c2cnn3c(NC[C@H]4C[C@@](C)(O)C4)cc(Oc4cccnc4)nc23)ccc1C(=O)NC1CC1 [CFI-402257]
[1]; first and duplicate experiment together (FIGS. 1 and 2)
  complete tumor regression: no instances in which complete regression was observed
[1]; single agent arms, first and duplicate experiment (FIGS. 1B, 1C, 2B, 2C)
  effect on tumor growth (tumor volume): tumor growth delay
[2]; CFI-402257 6 mg/kg PO QD 21 days, anti-PD-1 antibody 150 μg IP Days 0, 3, 6, 10
  tolerability of the administered dosage: well-tolerated
[2]; first experiment
  animals recording significant body weight loss: none
[2]; second experiment
  body weight loss: < 7.5%
